Patent US20240261418A1, “SOS1 DEGRADING AGENT AND PREPARATION METHOD THEREFOR AND APPLICATION THEREOF” (SHANGHAI LEADINGTAC PHARMACEUTICAL CO. LTD., priority 2021, published 2024)

Target: T1, SOS1 protein (Homo sapiens, UniProt Q07889)
T1 sequence (Q07889 1-1333): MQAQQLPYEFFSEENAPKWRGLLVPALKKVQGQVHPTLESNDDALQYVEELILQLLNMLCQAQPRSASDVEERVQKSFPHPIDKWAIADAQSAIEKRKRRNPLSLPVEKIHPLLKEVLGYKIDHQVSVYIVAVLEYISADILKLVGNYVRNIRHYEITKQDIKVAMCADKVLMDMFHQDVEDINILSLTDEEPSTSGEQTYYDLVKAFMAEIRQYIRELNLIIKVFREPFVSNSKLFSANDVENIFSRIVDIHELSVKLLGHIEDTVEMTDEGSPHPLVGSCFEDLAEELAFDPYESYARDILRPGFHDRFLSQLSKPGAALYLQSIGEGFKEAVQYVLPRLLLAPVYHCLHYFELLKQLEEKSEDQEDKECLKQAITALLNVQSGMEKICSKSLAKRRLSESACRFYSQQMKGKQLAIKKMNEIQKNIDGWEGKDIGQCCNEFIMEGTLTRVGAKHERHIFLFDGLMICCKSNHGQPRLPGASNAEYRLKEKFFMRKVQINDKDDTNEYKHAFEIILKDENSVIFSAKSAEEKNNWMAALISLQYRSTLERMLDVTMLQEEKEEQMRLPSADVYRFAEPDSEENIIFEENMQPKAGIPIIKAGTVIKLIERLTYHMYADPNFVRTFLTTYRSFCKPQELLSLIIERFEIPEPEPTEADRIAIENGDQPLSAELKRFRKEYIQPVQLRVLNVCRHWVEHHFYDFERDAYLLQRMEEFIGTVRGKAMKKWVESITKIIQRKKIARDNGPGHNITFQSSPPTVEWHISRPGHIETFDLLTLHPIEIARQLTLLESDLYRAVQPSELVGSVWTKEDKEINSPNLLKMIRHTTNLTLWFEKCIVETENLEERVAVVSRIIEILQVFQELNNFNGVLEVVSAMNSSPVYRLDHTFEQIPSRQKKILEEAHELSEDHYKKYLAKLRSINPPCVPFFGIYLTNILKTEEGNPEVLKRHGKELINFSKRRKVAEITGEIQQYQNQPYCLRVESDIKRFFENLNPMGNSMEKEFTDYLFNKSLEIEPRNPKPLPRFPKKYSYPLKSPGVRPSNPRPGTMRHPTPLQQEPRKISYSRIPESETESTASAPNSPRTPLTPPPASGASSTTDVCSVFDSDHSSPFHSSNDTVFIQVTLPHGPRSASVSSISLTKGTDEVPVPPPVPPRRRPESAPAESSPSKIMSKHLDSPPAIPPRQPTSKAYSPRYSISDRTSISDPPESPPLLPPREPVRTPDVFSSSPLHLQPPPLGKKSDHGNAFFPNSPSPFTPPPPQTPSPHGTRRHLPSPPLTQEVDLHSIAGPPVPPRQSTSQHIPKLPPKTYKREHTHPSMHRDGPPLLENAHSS
Experiment: SOS1 degradation assay (Western blot) in SW-620 cells
Assay type: cell-based
Set-up: host or cells: NCI-H358, A-427, SW-620, DLD-1 (human cancer cell lines)
Details: SW-620 (KRAS G12V), 24 h; for DC50: read-out: SW620 (G12V) DC50; for Dmax: read-out: SW620 (G12V) Dmax
Method: Test Example 2: SOS1 Degradation Assay
The degradation of SOS1 by the compounds was investigated on KRAS G12C mutant human non-small cell lung cancer cells NCI-H358 (ATCC or Stem Cell Bank, Chinese Academy of Sciences), KRAS G12D mutant human lung cancer cells A-427 (ATCC), KRAS G12V mutant human colorectal adenocarcinoma cells SW-620 (ATCC), and KRAS G13D mutant human colorectal adenocarcinoma epithelial cells DLD-1 (ATCC). The specific procedures were as follows:
0.95 mL of cells were seeded into each well of a 24-well cell culture plate to achieve a cell density of 5×10^5 cells/well; the cell plate was incubated in an incubator at 37° C. with 5% CO2 overnight. Then 50 μL of the compound solution after dilution was added to each of the wells with the corresponding cells, so that the final concentration of the compound was in a range of 0.03-3000 nM. The final concentration of DMSO was 0.25%.
After dosing, the cell plate was incubated in an incubator at 37° C. with 5% CO2 for 24 h. The cell culture medium in the 24-well plate was removed, and the plate was washed twice with 1×PBS. 180 μL of RIPA (strong) lysis buffer (Beyotime, P0013B) supplemented with 1 mM phenylmethylsulfonyl fluoride, a protease inhibitor mixture (Beyotime, P1008), and a protease phosphatase inhibitor mixture (Beyotime, P1045) was added to lyse adherent NCI-H358 cells at the bottom of the cell culture plate. After the plate was left to stand on ice for 30 min, the protein lysate in each well was transferred to a 1.5 mL centrifuge tube and centrifuged at 15000 g for 20 min at 4° C. […] The concentration of total protein in the cell lysate supernatant was determined using the BCA Protein Quantification Kit (Tiangen, PA115-02). […]
The concentration of total protein in the cell lysate was determined by BCA. […] After the blocking, the PVDF membrane was incubated with an SOS1 primary antibody (Abcam, ab140621) at 4° C. overnight, washed with a TBST buffer (2.4 g of Tris, 8.8 g of NaCl, 1.5 mL of Tween 20, with pH adjusted to 7.4, with the volume brought to 1 L) for 30 min (10 min/time), incubated with a secondary antibody (Abcam, ab205718) at room temperature for 2 h, washed with a TBST buffer for 30 min (10 min/time), and finally incubated with Clarity Western ECL Substrate (BIO-RAD, 170-5061) for 5 min for luminescence and color development, and a chemiluminescence imaging system (Clinx, ChemiScope 6200 Touch) was used for color development and protein mapping. […] The gray correction value for each sample was calculated by the formula: gray correction value=(gray value of target protein/gray value of corresponding internal reference)×103. Then the degradation rate was calculated by comparing the gray correction value with the gray correction value of the control group. […]

Row | DC50 | Dmax | SMILES
1 | ≤ 0.05 µM | 80 to 100% | COc1cc2nc(C)nc(N[C@H](C)c3cc(-c4c(Cl)cccc4CN(C)C)cs3)c2cc1[C@H]1CC[C@H](C(=O)N2CCC(CCOCC3CCN(C(=O)c4ccc(Cl)c(N5CCC(=O)NC5=O)c4)CC3)CC2)CC1 [Example 5, 1-(2-chloro-5-(4-((2-(1-((1R,4R)-4-(4-(((R)-1-(4-(2-chloro-6-((dimethylamino)methyl)phenyl)thien-2-yl)ethyl)amino)-7-methoxy-2-methylquinazolin-6-yl)cyclohexane-1-carbonyl)piperidin-4-yl)ethoxy)methyl)piperidine-1-carbonyl)phenyl)dihydropyrimidine-2,4(1H,3H)-dione]
2 | ≤ 0.05 µM | 80 to 100% | COc1cc2nc(C)nc(N[C@H](C)c3cc(-c4c(Cl)cccc4CN(C)C)cs3)c2cc1[C@H]1CC[C@H](C(=O)N2CCN(CC3CCC4(CC3)CCN(C(=O)c3ccc(Cl)c(N5CCC(=O)NC5=O)c3)CC4)CC2)CC1 [Example 1, 1-(2-chloro-5-(9-((4-((1R,4R)-4-(4-(((R)-1-(4-(2-chloro-6-((dimethylamino)methyl)phenyl)thien-2-yl)ethyl)amino)-7-methoxy-2-methylquinazolin-6-yl)cyclohexane-1-carbonyl)piperazin-1-yl)methyl)-3-azaspiro[5.5]undecane-3-carbonyl)phenyl)dihydropyrimidine-2,4(1H,3H)-dione]
